Experimental data published in patent US20040186166A1, “Cannabinoid analogs as peroxisome proliferator activated nuclear receptor gamma activators” (priority 2002, published 2004).
pEC50: −log10 of the molar value. “And” between values parts separate entries of the source, which are not always exact repeats. Equal entries are not always repeated.

Key:
Format in all cases: cell-based
Gal4-DBD/mPPARγ = target: T1, Gal4-DBD/mPPARγ (Mus musculus, UniProt P37238); test: Gal4-dependent MH100-Luc reporter, Gal4-DBD/mPPARγ; conditions: HEK293 cells
T1 construct: expressed in transfected cells; host or cells: HEK293
T1 sequence (P37238 1-475 isoform P37238-2): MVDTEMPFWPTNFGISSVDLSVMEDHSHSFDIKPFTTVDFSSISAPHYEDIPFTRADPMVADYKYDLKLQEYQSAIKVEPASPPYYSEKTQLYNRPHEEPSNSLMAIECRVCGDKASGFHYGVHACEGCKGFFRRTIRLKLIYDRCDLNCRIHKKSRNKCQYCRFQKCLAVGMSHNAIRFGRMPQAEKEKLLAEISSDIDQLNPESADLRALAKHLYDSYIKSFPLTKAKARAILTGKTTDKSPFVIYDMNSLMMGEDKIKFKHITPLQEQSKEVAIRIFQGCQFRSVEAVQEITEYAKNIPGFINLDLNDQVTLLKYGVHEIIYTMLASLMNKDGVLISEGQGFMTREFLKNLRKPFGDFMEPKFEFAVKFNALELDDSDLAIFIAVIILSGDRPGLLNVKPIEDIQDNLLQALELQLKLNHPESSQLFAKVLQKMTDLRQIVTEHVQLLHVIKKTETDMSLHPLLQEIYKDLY
From the text: The-pCMX-Gal4-mPPARγ1 was constructed by fusing the mPPARγ1 coding sequence to the yeast GAL4 DNA binding domain (amino acid 1-147) in the pCMX vector. The AF-2 helix-truncated mutant of mPPARγ1 (PPARγ ΔAF2) was generated by PCR amplification-to introduce a stop codon and a NheI restriction site after amino acid 489, and then-subcloned into the pCMX vector. The PPRE-TK-LUC, MH100-TK-LUC-and DR1-TK-LUC reporters have been described previously (Forman et al., Cell 83:803-812, 1995; Umesono et al., Cell 65:1255-1266, 1991).
(§1) For PPARγ activation assay, HEK293 cells were plated in 12-well cell culture plates and maintained in Dulbecco's modified Eagle's medium (DMEM) supplemented with 10% fetal bovine serum (FBS) at 37° C. under 5% CO2. […] The average normalized luciferase activity was determined via triplicate experiments. […]
To further confirm activation of PPARγ by AJA, and also to determine PPARγ species specificity, the ability of AJA to activate the chimeric Gal4-DBD/PPAR fusion proteins on a Gal4-dependent MH100-Luc reporter was assessed (FIG. 4A). The PPARs were expressed as Gal4 DBD fusion proteins, which bind to the UAS promoter containing 4 copies of a synthetic Gal4 binding site upstream of the minimal thymidine kinase (TK) promoter. […]

human PPARδ = target: T2, human PPARδ (Homo sapiens, UniProt Q03181); test: Gal4-dependent MH100-Luc reporter, human PPARδ
T2 construct: The Gal4-hPPAR LBD constructs were obtained from GlaxoSmithKline; host or cells: HEK293
T2 sequence (Q03181 211-439 limits assumed): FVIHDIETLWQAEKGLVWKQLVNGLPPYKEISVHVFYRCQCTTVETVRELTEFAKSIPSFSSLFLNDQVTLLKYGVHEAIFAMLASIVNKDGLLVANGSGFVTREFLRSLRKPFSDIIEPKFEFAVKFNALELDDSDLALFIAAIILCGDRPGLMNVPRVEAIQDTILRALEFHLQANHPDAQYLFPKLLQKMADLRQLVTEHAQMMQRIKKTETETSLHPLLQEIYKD
Method: (§2) The pGEX-DRIP205 (527˜970) was obtained from the Sloan-Kettering Cancer Center. The Gal4-hPPAR LBD constructs were obtained from GlaxoSmithKline, Research Triangle Park, NC. The IL8-Luciferase reporter was obtained from Celgene, San Diego, Calif. The plasmids mPPARα, mPPARγ1, mPPARδ , and hRXRα were in the pCMX vector (Umesono et al., Cell 65:1255-1266, 1991).
as §1
(§3) To further confirm activation of PPARγ by AJA, and also to determine PPARγ species specificity, the ability of AJA to activate the chimeric Gal4-DBD/PPAR fusion proteins on a Gal4-dependent MH100-Luc reporter was assessed (FIG. 4A). The PPARs were expressed as Gal4 DBD fusion proteins, which bind to the UAS promoter containing 4 copies of a synthetic Gal4 binding site upstream of the minimal thymidine kinase (TK) promoter. […] Transfected cells were treated with increasing concentrations of AJA from 10-60 μM and the luciferase activities were determined in triplicate experiments. […]

human PPARα = target: T3, human PPARα (Homo sapiens, UniProt Q07869); test: Gal4-dependent MH100-Luc reporter, human PPARα
T3 construct: The Gal4-hPPAR LBD constructs were obtained from GlaxoSmithKline; host or cells: HEK293
T3 sequence (Q07869 239-466 limits assumed): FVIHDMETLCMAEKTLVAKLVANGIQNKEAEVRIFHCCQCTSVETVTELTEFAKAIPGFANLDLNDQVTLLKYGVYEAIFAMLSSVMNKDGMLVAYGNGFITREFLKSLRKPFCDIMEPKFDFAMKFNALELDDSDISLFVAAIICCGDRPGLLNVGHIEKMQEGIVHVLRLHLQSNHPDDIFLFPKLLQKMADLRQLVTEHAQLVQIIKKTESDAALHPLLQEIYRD
Method: as §2, §1, §3

Structure (SMILES): CCCCCCC(C)(C)c1cc(O)c2c(c1)OC(C)(C)[C@@H]1CC=C(C(=O)O)C[C@@H]21 [AJA, dimethylheptyl-THC-11-oic acid]
- activation of Gal4-DBD/mPPARγ reporter gene expression (Gal4-DBD/mPPARγ; 20 μM AJA): activated the reporter gene expression significantly
- pEC50 (Gal4-DBD/mPPARγ; EC-50 for activation of PPARγ, estimated, 10-60 μM AJA, luciferase activity): ~4.89 and 4.89
- activation of human PPARδ (human PPARδ): did not activate
- activation of human PPARα (human PPARα): did not activate
